Where two headings read alike, the source gives them in different places. Values belong to the compound of their own block, whether it stands above or below them.
Biological target: T1, uterine OT receptors (Rattus norvegicus, UniProt P70536)
T1 construct: using a crude membrane preparation of uteri; from tissue; host or cells: uterus of DES-treated rats, crude membrane preparation
T1 sequence (P70536 1-388): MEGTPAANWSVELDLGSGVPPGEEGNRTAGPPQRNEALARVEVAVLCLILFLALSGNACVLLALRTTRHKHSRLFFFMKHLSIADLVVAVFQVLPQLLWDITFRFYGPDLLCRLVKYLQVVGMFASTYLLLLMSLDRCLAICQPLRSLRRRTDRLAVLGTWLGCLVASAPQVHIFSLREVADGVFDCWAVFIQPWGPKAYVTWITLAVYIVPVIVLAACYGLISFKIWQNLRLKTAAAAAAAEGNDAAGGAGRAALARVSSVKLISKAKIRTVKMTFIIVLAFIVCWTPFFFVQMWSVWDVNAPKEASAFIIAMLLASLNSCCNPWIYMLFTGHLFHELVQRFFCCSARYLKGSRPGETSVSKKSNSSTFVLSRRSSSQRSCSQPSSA
Test: [³H]Oxytocin radioligand binding assay, crude membrane preparation of uteri from DES-treated rats
Details: for inhibition at 1 µM: read-out: inhibition at 1,000 nM; for inhibition at 0.1 µM: read-out: inhibition at 100 nM

[1] = competition with 1 nM [³H]OT, 60 minutes, 22°C, concentration that inhibits 50% of OT, read-out: IC50

Description: The high affinity binding of [³H] Oxytocin (OT)([tyrosyl, 3,5-[³H]OT; 30-60 Ci/mmol; New England Nuclear. Boston, MA) to uterine OT receptors was based on an assay (Fuchs, A-R; Fuchs, F; Soloff, MS. 1985 J. Clin. Endocrinol. Metab. 60:37) using a crude membrane preparation of uteri taken from diethylstilbestrol dipropionate (DES)-treated (0.3 mg/kg, ip; 18-24) rats. Competition studies were conducted at equilibrium (60 minutes; 22°C) using 1 nM[³H]OT in the following assay buffer: 50 mM Tris-HCl, 5 mM MgCl₂, and 0.1% BSA, pH 7.4. Nonspecific binding (10% of the total binding) was determined using 1 mM unlabeled OT and the binding reaction was terminated by filtration through glass fiber filters using a cell harvester (model 7019, Skatron, Inc., Sterling, VA). IC₅₀ (the concentration of tested compound that inhibits 50% of OT) was reported, unless otherwise noted.

- IC50 [1]: 0.11 µM
Compound: Cc1ccccc1N1CCN(S(=O)(=O)C[C@]23CC[C@H](C[C@@H]2NC(=O)Cc2c[nH]cn2)C3(C)C)CC1 [Example 43]

- inhibition at 1 µM: 35%
Compound: Cc1ccccc1N1CCN(S(=O)(=O)C[C@]23CC[C@H](C[C@@H]2N(C)C(=O)OCc2ccccc2)C3(C)C)CC1 [Example 40, 1-((7,7-Dimethyl-2-endo-methyl(benzyloxy-carbonyl)amino-bicyclo(2.2.1)-heptan-1-yl)methanesulfonyl)4-(2-methylphenyl)piperazine]

- IC50 [1]: 0.12 µM
Compound: COC(=O)[C@H]1C[C@H]2CC[C@]1(CS(=O)(=O)N1CCN(c3ccccc3C)CC1)C2(C)C [Example 23, 1-((7,7-Dimethyl-2-endo-methoxycarbonyl-bicyclo-(2.2.1)heptan-1-yl)methanesulfonyl)-4-(2-methyl-phenyl)piperazine]

- IC50 [1]: 0.0063 µM
Compound: Cc1ccccc1N1CCN(S(=O)(=O)C[C@]23CC[C@H](C[C@@H]2N(C)C(=O)[C@@H](N)CCS(C)(=O)=O)C3(C)C)CC1 [Example 41, 1-((7,7-dimethyl-2-endo-methyl(2S-amino-4-(methylsulfonyl)butanoyl)amino-bicyclo(2.2.1)heptan-1-yl)methanesulfonyl)-4-(2-methylphenyl)-piperazine]

- inhibition at 0.1 µM: 66%
Compound: CCOC(=O)CN1CCCC1C(=O)NCC(C)C1(O)CC2CCC1(CS(=O)(=O)N1CCN(c3ccccc3C)CC1)C2(C)C (stereo not drawn) [Example 52, 1-((7,7-Dimethyl-2-exo-hydroxy-2-endo-2-(1-(l-n-(ethoxycarboxymethyl)-prolyl)amino)propyl-bicyclo-(2.2.1)heptan-1-yl)methanesulfonyl)-4-(2-methylphenyl)piperazine]

- inhibition at 1 µM: 31%
Compound: Cc1ccccc1N1CCN(S(=O)(=O)C[C@]23CC[C@H](C[C@]2(O)CNCC(C)C)C3(C)C)CC1 [Example 19, 1-((7,7-Dimethyl-2-exo-hydroxy-2-endo-isobutylamino-methyl-bicyclo(2.2.1)heptan-1-yl)methanesulfonyl)-4-(2-methylphenyl)piperazine]

- inhibition at 0.1 µM: 66%
Compound: CCOC(=O)CN1CCCC(C(=O)NCC(C)C2(O)CC3CCC2(CS(=O)(=O)N2CCN(c4ccccc4C)CC2)C3(C)C)C1 (stereo not drawn) [Example 50, 1-((7,7-Dimethyl-2-exo-hydroxy-2-endo-2-(1-(3-(1-ethoxycarbonyl-methyl)piperidinylcar-bonyl)amino)propyl-bicyclo(2.2.1)heptan-1-yl)methanesulfonyl)-4-(2-methylphenyl)piperazine]

- inhibition at 1 µM: 44%
Compound: Cc1ccccc1N1CCN(S(=O)(=O)CC23CCC(CC2=CCN=[N+]=[N-])C3(C)C)CC1 (stereo not shown) [Example 15, 1-((7,7-dimethyl-2-(2-azido)ethylidine-bicyclo-(2.2.1)heptan-1-yl)methanesulfonyl)-4-(2-methyl-phenyl)piperazine]

- inhibition at 1 µM: 54%
Compound: Cc1ccccc1N1CCN(S(=O)(=O)C[C@]23CC[C@H](C[C@@H]2NC(=O)OCc2ccccc2)C3(C)C)CC1 [Example 39, 1-((7,7-Dimethyl-2-endo-benzyloxycarbonylamino-bicyclo(2.2.1)heptan-1-yl)methanesulfonyl)-4-(2-methyl-phenyl)piperazine]

- inhibition at 1 µM: 72%
Compound: COC(=O)C1=CC2CCC1(CS(=O)(=O)N1CCN(c3ccccc3C)CC1)C2(C)C (stereo not shown) [Example 20, 1-((7,7-Dimethyl-2-methoxycarbonyl-bicyclo(2.2.1)hept-2-en-1-yl)methanesulfonyl)-4-(2-methylphenyl)-piperazine]

- inhibition at 0.1 µM: 66%
Compound: CCOC(=O)CN1CCC(C(=O)NCC(C)C2(O)CC3CCC2(CS(=O)(=O)N2CCN(c4ccccc4C)CC2)C3(C)C)CC1 (stereo not drawn) [Example 57, 1-((7,7-Dimethyl-2-exo-hydroxy-2-endo-2-(1-(3-(1-ethoxycarbonyl-methyl)piperidinylcar-bonyl)amino)propyl-bicyclo(2.2.1)heptan-1-yl)methanesulfonyl)-4-(2-methylphenyl)piperazine]

Compound: CCOC(=O)C(CC=C1CC2CCC1(CS(=O)(=O)N1CCN(c3ccccc3C)CC1)C2(C)C)(NC(C)=O)C(=O)OCC (stereo not shown) [Example 28, 1-((7,7-Dimethyl-2-(3-acetamido-3,3'-di(ethoxycarbonyl))propylidine-bicyclo(2.2.1)heptan-1-yl)methanesulfonyl)-4-(2-methylphenyl)piperazine]
- inhibition at 0.1 µM: 35%

Compound: Cc1ccccc1N1CCN(S(=O)(=O)C[C@]23CC[C@H](C[C@@H]2NC(=O)[C@H](CCS(C)(=O)=O)NC(=O)Cc2c[nH]cn2)C3(C)C)CC1 [Example 37, 1-((7,7-Dimethyl-2-endo-(2s-(imidazol-4-ylacetyl-amino)-4-(methyl-sulfonyl)butyramido)-bicyclo(2.2.1)-heptan-1-yl)methanesulfonyl)-4-(2-methylphenyl)-piperazine]
- IC50: 0.0012 µM

- inhibition at 0.1 µM: 36%
Compound: Cc1ccccc1N1CCN(S(=O)(=O)CC23CCC(CC2=CCNC(=O)Cc2cnc[nH]2)C3(C)C)CC1 (stereo not shown) [Example 17, 1-((7,7-dimethyl-2-(2-(4(5)-imidazolylacetyl)amino)-ethylidine-bicyclo(2.2.1)heptan-1-yl)methane-sulfonyl)-4-(2-methylphenyl)piperazine]

- Kd (saturation binding assay, uterus): 0.0007 µM
Compound: [³H]OT [reference compound]

- inhibition at 1 µM: 78%
Compound: Cc1ccccc1N1CCN(S(=O)(=O)CC23CCC(C=C2C(=O)NCCc2cnc[nH]2)C3(C)C)CC1 (stereo not shown) [Example 22, 1-((7,7-Dimethyl-2-(4-imidazolyl)ethylaminocarbonyl-bicyclo(2.2.1)hept-2-en-1-yl)methanesulfonyl)-4-(2-methylphenyl)piperazine]

- inhibition at 0.1 µM: 91%
Compound: Cc1ccccc1N1CCN(S(=O)(=O)C[C@]23CC[C@H](C[C@@H]2NC(=O)[C@H](CCS(C)(=O)=O)NC(=O)OC(C)(C)C)C3(C)C)CC1 [Example 35, 1-((7,7-Dimethyl-2-endo-(2S-(tert-butyloxycarbonyl-amino)-4-(methyl-sulfonyl)-butyramido)-bicyclo(2.2.1)-heptan-1-yl)methanesulfonyl)-4-(2-methylphenyl)-piperazine]

- inhibition at 10 µM (read-out: inhibition at 10,000 nM): 5%
Compound: Cc1ccccc1N1CCN(S(=O)(=O)CC23CCC(CC2=O)C3(C)C)C(C)C1=O (stereo not shown) [Example 31, 1-((7,7-Dimethyl-2-oxo-bicyclo(2.2.1)heptan-1-yl)methanesulfonyl)-4-(2-methylphenyl)-2-methyl-3-piperazinone]

- IC50 [1]: 0.46 µM
Compound: Cc1ccccc1N1CCN(S(=O)(=O)CC23CCC(CC2=NO)C3(C)C)CC1 (stereo not shown) [Example 33, 1-((7,7-Dimethyl-2-oximino-bicyclo(2.2.1)heptan-1-yl)methanesulfonyl)-4-(2-methylphenyl)-piperazine]

- inhibition at 0.1 µM: 23%
Compound: C=CC1(O)CC2CCC1(CS(=O)(=O)N1CCN(c3ccccc3C)CC1)C2(C)C (stereo not drawn) [Example 12, 1-((7,7-dimethyl-2-exo-hydroxy-2-endo-ethenyl-bicyclo(2.2.1)heptan-1-yl)methanesulfonyl)-4-(2-methylphenyl)piperazine]

- IC50 [1]: 0.26 µM
Compound: Cc1ccccc1N1CCN(S(=O)(=O)C[C@]23CC[C@H](C[C@@H]2C(=O)O)C3(C)C)CC1 [Example 24, 1-((7,7-Dimethyl-2-endo-carboxy-bicyclo(2.2.1)heptan-1-yl)methane-sulfonyl)-4-(2-methylphenyl)piperazine]

- IC50 [1]: 0.026 µM
Compound: Cc1ccccc1N1CCN(S(=O)(=O)C[C@]23CC[C@H](C[C@@H]2NC(=O)C(C)c2c[nH]cn2)C3(C)C)CC1 (stereo partly drawn) [Example 44, 1-((7,7-Dimethyl-2-endo-(2-(4-imidazolyl)propanoyl)-amino-bicyclo-(2.2.1)heptan-1-yl)methanesulfonyl)-4-(2-methylphenyl)piperazine]
